Source: publication PMC7269032, “Chiral 4-O-acylterpineol as transdermal permeation enhancers: insights of the enhancement mechanisms of a transdermal enantioselective delivery system for flurbiprofen” (Drug Delivery, 2020)

Legend:
[1] = In vitro permeation experiment of FP drug-in-adhesive patches in two-chamber diffusion cells; format: in vitro ADME, rabbit; details: for ER (Q24h with enhancer/Q24h without enhancer) for R-FP / Tlag of R-FP / Js of R-FP: permeant R-FP; for ER (Q24h with enhancer/Q24h without enhancer) for R-FP / Tlag of R-FP / Js of R-FP / ER (Q24h with enhancer/Q24h without enhancer) for S-FP / Tlag of S-FP / Js of S-FP / ER (Q24h with enhancer/Q24h without enhancer) for SR-FP / Tlag of SR-FP / Js of SR-FP: patch 5% drug (w/w); for ER (Q24h with enhancer/Q24h without enhancer) for R-FP / ER (Q24h with enhancer/Q24h without enhancer) for S-FP / ER (Q24h with enhancer/Q24h without enhancer) for SR-FP: enhancer equimolar to 5% 4-TER; for Tlag of R-FP / Js of R-FP / Tlag of S-FP / Js of S-FP / Tlag of SR-FP / Js of SR-FP: enhancer equimolar to 5% 4-TER (control: no enhancer); for Js of R-FP / Js of S-FP / Js of SR-FP: mean ± SD, n = 4; for ER (Q24h with enhancer/Q24h without enhancer) for S-FP / Tlag of S-FP / Js of S-FP: permeant S-FP; for ER (Q24h with enhancer/Q24h without enhancer) for SR-FP / Tlag of SR-FP / Js of SR-FP: permeant SR-FP
Description: Male, Japanese big-eared rabbits weighting 2.5–3.0 kg were purchased from the animal experimental center of North China University of Science and Technology. The experimental process was in accordance with the ‘Ethical Guide for Laboratory Animal Investigation’ and was approved by the Animal Experimental Center Committee of North China University of Science and Technology. All efforts were made to minimize animal suffering and to limit the number of animals used.
The hair of back skin was removed by clipper and electrical shaver carefully when the rabbits were anesthetized with ether. Full thickness of back skin was excised after the rabbit was sacrificed by injecting air into the ear veins, and the subcutaneous fat tissue was carefully removed using the surgical scissor and scalpel. The integrity of the skin was confirmed by microscopic observation method. The treated rabbit skin was cut into a size of 1.5 cm × 1.5 cm and stored at –80 °C until use. Before use, it needed to be immersed in physiological saline for 20 min to thaw.
Drug-in-adhesive patch (drug loading of 5% by adhesive) was prepared by using solvent evaporation method. An appropriate amount of FP was dissolved in a suitable amount of ethyl acetate, which was later added to the adhesive and mixed thoroughly with a mechanical stirrer. The resulting solution was coated onto release liner (Scotch Pak® 9744, 3M, USA) by using lab coating unit (6025, BLD Instruments Co. Ltd., Guangdong, China). The coated laminate was dried at 50 °C for 15 min. After the solvent had been removed, it was covered with backing laminate (Scotch Pak® 9732, 3M).
Modified two-chamber diffusion cells with an effective diffusion area of 0.95 cm^2 were employed in the in vitro permeation experiment. The cells were kept at 32 °C by the circulated water bath and stirred with magnetic bars at 400 rpm. The dermis side of the skin was attached to one-half of the side-by-side diffusion cells, the FP patch was pressed on the skin with the adhesive side facing the SC, and pH 7.4 PBS was used as the receptor medium. At predetermined time points (2, 4, 6, 8, 10, 12 and 24 h), the receptor solution of 2.0 mL was withdrawn and equal volume PBS was added to maintain a constant volume of receptor solution.
The cumulative amount of each drug permeating per unit area (Q) versus time was plotted. Q24h=(3.5Ci+2.0∑i=1n−1Ci−1)/A
Q was the cumulative skin permeation amount. Ci was the concentration in the receiver compartment at time i, A was the effective diffusion area of diffusion.
The steady-state flux (Js, µg/cm^2/h) was calculated from the slope of linear region of the plot. The lag-time was determined by extrapolating the linear portion of the curve to the abscissa. Js=dQr/Adt
Enhancement ratio (ER) was used to evaluate the activity of the enhancers, which is the ratio of Q24h with enhancer to Q24h without enhancer. ER=Q24h(with enhancer)/Q24h(without enhancer)

[2] = In vivo pharmacokinetic study, transdermal patch administration; parameters: species or system rabbit; details: rabbits, SR-FP patch with 5% enhancer or without (control); for V of R-FP: analyte R-; for V of S-FP: analyte S-
Method: Thirty-six male rabbits weighing 2.5 kg were divided into six groups, and the back skin was intact without erythema. For patch administration studies, patches without or with enhancers (120 mg/kg) were stuck to the shaved area of the rabbits. They were administered as follows: (1) control group: only the SR-FP; (2) enhancer group A: prepared SR-FP patch with 5% d-4-TER; (3) enhancer group B: prepared SR-FP patch with 5% d-4-T-dC18; (4) enhancer group C: prepared SR-FP patch with 5% l-4-T-dC18; (5) enhancer group D: prepared S-FP patch with 5% d-4-T-dC18; (6) enhancer group E: prepared R-FP patch with 5% d-4-T-dC18. In order to prevent the patches fallen off, gauze and medical tape were used to fix the patches. The blood from ear vein of rabbit was collected 0.5 mL at 0.5, 1, 2, 4, 6, 8, 12, 16, 20, 24, 26, 28, 30, 32, 36 and 48 h, and the patch was removed after 24 h, then the residual drug was wiped with physiological saline. The sample was processed by the same method as IV. All animal studies were carried out in accordance with the NIH Guidelines for the Care and Use of Laboratory Animals and were also approved by the Life Science Research Center of North China University of Science and Technology.
After being thawed and equilibrated to room temperature, an aliquot (100 μL) of plasma sample was spiked with […] (10 μL) of 40.0 μg/mL and 400 μL methanol. The samples were vortexed for 5 min and followed by centrifugation at 16,000 rpm for 10 min at 25 °C. After centrifugation, the supernatant was transferred to a clean tube and evaporated to dryness at 40 °C under a gentle stream of nitrogen. The dried samples were reconstituted with 100 μL mobile phase, vortexed and centrifuged before analysis.
Pharmacokinetic parameters were calculated using WinNonlin® software (Pharsight Corporation, San Diego, CA, USA) based on noncompartmental model, including the maximal plasma drug concentration (Cmax), the time to reach Cmax (Tmax) which were obtained from the observed data, the area under the time–concentration curve from time 0 to time t (AUC0–t) of distribution which was calculated using the linear trapezoidal rule, the mean residence time (MRT), the plasma clearance (Cl) and the apparent volume(V). Enhancement factor (Ef) was calculated from the following equation: Ef=AUC0−t(with enhancer)/AUC0−t(without enhancer)
The concentrations of drugs in the receptor medium or rabbit plasma were determined using a validated HPLC method. The HPLC system was equipped with a Shimadzu HPLC apparatus, including an LC-20AT pump, a SIL20A syringe, an SPD-20A detector, and a CTO-20A column oven. The propylparaben was used as an internal standard, and the flow rate of chromatographic analysis was set 1.0 mL/min. For in vitro analysis of SR-FP, thermo (USA) C18 column (150 mm × 4.6 mm, 5 μm particle) maintained at 40 °C was used to elute SR-FP, the mobile phase was used methanol and 1% aqueous glacial acetic acid (60:40, v/v) and the wavelength was set at 247 nm. The HPLC conditions of S-FP and R-FP were as follows: The column was CHIRALPAK®IA (4.6 mm × 250 mml, 5 μm particle diameter) of DAOCEL (Shanghai, China). The mobile phase consisted of acetonitrile and trifluoroacetic acid (0.05%, 50:50, v/v), the wavelength was set at 254 nm. For in vivo analysis of S-FP and R-FP, the mobile phase consisted of acetonitrile and trifluoroacetic acid (0.05%, 35:65, v/v), and other conditions were the same to in vitro analysis.
Absolute bioavailability (F) was calculated by the following equation: F=AUCpatch·Dosei.v./AUCi.v.·Dosepatch

SMILES	ER (Q24h with enhancer/Q24h without enhancer) for R-FP [1]	Tlag of R-FP [1]	Js of R-FP [1]	ER (Q24h with enhancer/Q24h without enhancer) for S-FP [1]	Tlag of S-FP [1]	Js of S-FP [1]	ER (Q24h with enhancer/Q24h without enhancer) for SR-FP [1]	Tlag of SR-FP [1]	Js of SR-FP [1]	V of R-FP [2]	V of S-FP [2]	cumulative transport of SR-FP at 24 h ([1]; 3% enhancer level (w/w))	cumulative transport of SR-FP at 24 h ([1]; 5% enhancer level (w/w))	Q24h of SR-FP ([1]; enhancer at same molar concentration as 5% 4-TER)
CCCCCCCCCCCCCC(=O)OC1(C(C)C)CC=C(C)CC1 (stereo not drawn) [d-4-T-C14, d-4-methyl-1-(1-methylethyl)-3-cyclohexen-1-yl tetradecanoate]	3.19	3.98 h	8.16 ± 0.84 μg/cm^2/h	3.53	2.04 h	7.75 ± 1.68 μg/cm^2/h	2.85	3.58 h	18.79 ± 3.81 μg/cm^2/h					
CCCCCCC(=O)OC1(C(C)C)CC=C(C)CC1 (stereo not drawn) [l-4-T-C7, l-4-methyl-1-(1-methylethyl)-3-cyclohexen-1-yl heptanoate]	1.38	2.11 h	3.19 ± 0.47 μg/cm^2/h	1.10	4.18 h	3.00 ± 0.69 μg/cm^2/h	1.35	2.96 h	6.58 ± 1.41 μg/cm^2/h					
CCCCCCCCC=CCCCCCCCC(=O)OC1(C(C)C)CC=C(C)CC1 (stereo not drawn) [l-4-T-dC18, l-4-methyl-1-(1-methylethyl)-3-cyclohexen-1-yl octadec-9-enoate]	4.6	3.68 h	12.04 ± 2.51 μg/cm^2/h	4.98	3.89 h	12.98 ± 3.51 μg/cm^2/h	4.45	3.61 h	20.53 ± 3.11 μg/cm^2/h	65.31 ± 28.90 L	68.51 ± 17.97 L			547.20 ± 35.94 μg/cm^2
CC1=CC[C@@](O)(C(C)C)CC1 [l-4-TER, l-4-terpineol, reference compound]	2.64	3.82 h	6.99 ± 1.12 μg/cm^2/h	2.25	4.07 h	6.02 ± 0.99 μg/cm^2/h	1.81	3.13 h	11.43 ± 2.06 μg/cm^2/h			145.16 ± 13.64 μg/cm^2	222.09 ± 19.19 μg/cm^2	

Next, values leading:

ER (Q24h with enhancer/Q24h without enhancer) for R-FP [1]	Tlag of R-FP [1]	Js of R-FP [1]	ER (Q24h with enhancer/Q24h without enhancer) for S-FP [1]	Tlag of S-FP [1]	Js of S-FP [1]	ER (Q24h with enhancer/Q24h without enhancer) for SR-FP [1]	Tlag of SR-FP [1]	Js of SR-FP [1]	V of R-FP [2]	V of S-FP [2]	cumulative transport of SR-FP at 24 h ([1]; 3% enhancer level (w/w))	cumulative transport of SR-FP at 24 h ([1]; 5% enhancer level (w/w))	Q24h of SR-FP ([1]; enhancer at same molar concentration as 5% 4-TER)	SMILES
1.96	2.40 h	4.40 ± 1.42 μg/cm^2/h	1.69	2.91 h	4.39 ± 0.49 μg/cm^2/h	2.14	3.74 h	14.46 ± 1.52 μg/cm^2/h						CCCCCCC(=O)OC1(C(C)C)CC=C(C)CC1 (stereo not drawn) [d-4-T-C7, d-4-methyl-1-(1-methylethyl)-3-cyclohexen-1-yl heptanoate]
4.43	3.95 h	11.81 ± 1.23 μg/cm^2/h	4.13	4.08 h	10.99 ± 2.17 μg/cm^2/h	2.77	1.85 h	17.57 ± 4.13 μg/cm^2/h	139.60 ± 34.29 L	92.94 ± 28.69 L				CCCCCCCCC=CCCCCCCCC(=O)OC1(C(C)C)CC=C(C)CC1 (stereo not drawn) [d-4-T-dC18, d-4-methyl-1-(1-methylethyl)-3-cyclohexen-1-yl octadec-9-enoate]
2.74	3.58 h	7.34 ± 2.51 μg/cm^2/h	2.97	2.45 h	7.60 ± 1.47 μg/cm^2/h	2.16	3.60 h	14.43 ± 3.62 μg/cm^2/h	251.59 ± 56.91 L	99.27 ± 18.81 L	168.14 ± 19.95 μg/cm^2	266.01 ± 58.81 μg/cm^2		CC1=CCC(O)(C(C)C)CC1 (stereo not drawn) [d-4-TER, d-4-terpineol, reference compound]
2.92	3.51 h	7.62 ± 1.49 μg/cm^2/h	2.73	3.37 h	6.80 ± 0.50 μg/cm^2/h	1.92	2.45 h	11.83 ± 6.27 μg/cm^2/h						CCCCCCCCCCCCCC(=O)OC1(C(C)C)CC=C(C)CC1 (stereo not drawn) [l-4-T-C14, l-4-methyl-1-(1-methylethyl)-3-cyclohexen-1-yl tetradecanoate]
